# According to patent US9388208B2, “Pyrrolo[1,2-f][1,2,4]triazines useful for treating respiratory syncitial virus infections” (Gilead Sciences, Inc., priority 2013, dated 2016):
# Columns and labels:
# [1] = test system: RSV strain A2; test: Anti-RSV activity, infectious cytopathic cell protection assay in HEp-2 cells; format: cell-based, Respiratory Syncytial Virus (RSV); conditions: human respiratory syncytial virus, HEp-2, 96 h
# Summary of the method: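 Near-confluent HEp-2 cells at 50,000/ml infected with titrated RSV A2 and dispensed onto 3-fold compound dilutions, then incubated 4 days at 37° C. Protection from virus-induced cytopathic effect read as CellTiter-Glo luminescence, normalized to 0% and 100% inhibition controls; EC50 by non-linear regression.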
# [2] = test system: HEp-2 cells; test: Cytotoxicity assay in HEp-2 cells; format: cell-based; conditions: uninfected HEp-2 cells, 4 days, CellTiter Glo
# Summary of the method: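 Uninfected HEp-2 cells added to prediluted compound, incubated 4 days, viability read by CellTiter Glo luminescence. Untreated cells set 100% and 2 uM puromycin 0% viability; CC50 fitted by non-linear regression as concentration reducing viability by 50%.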
# [3] = test system: MT-4 cells; test: Cytotoxicity assay in MT-4 cells; format: cell-based; conditions: 5 days, Cell-Titer Glo
# Summary of the method: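 Compounds in 3-fold serial dilution (26 nM to 530 μM, 100× concentrations in medium) incubated in quadruplicate with 2×10^3 MT-4 cells for 5 days at 37° C; viability by CellTiter-Glo luminescence. CC50 from 4-parameter fit (Top/Bottom fixed 100%/0%), mean±SD of 3 independent experiments.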
smiles,measurement,setting,value
"CC(C)(C)C(=O)SCCOP(=O)(OCCSC(=O)C(C)(C)C)OC[C@@]1(C#N)O[C@@H](c2ccc3c(N)ncnn23)[C@H](O)[C@@H]1O [Example 10, S,S′-2,2′-((((2R,3S,4R,5S)-5-(4-aminopyrrolo[1,2-f][1,2,4]triazin-7-yl)-2-cyano-3,4-dihydroxytetrahydrofuran-2-yl)methoxy)phosphoryl)bis(oxy)bis(ethane-2,1-diyl)bis(2,2-dimethylpropanethioate)]",EC50,[1],1 µM
same,CC50,[2],39 µM
same,CC50,[3],7.3 µM
